Reference: ChEMBL document CHEMBL1201862, “PubChem BioAssay data set” (2004)
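Growth conditions: 96-well plates. Treatment: test compound, 48 hours, 5 concentrations. Analysis: linear interpolation between bracketing concentrations; unreached endpoints set to highest concentration. Abbreviation: GI50, concentration required for 50% inhibition of growth.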 The source made the active and inactive calls. Cut-off read from the data, not from the text of the source: active = GI50 up to about 1.1 µM and inactive = higher.

Experiments:
Experiment in all cases: growth of human tumour cells (NCI), 48 h
BT-549 = tested on: BT-549
SF-295 = tested on: SF-295
RXF 393 = tested on: RXF 393
U-251 = tested on: U-251
NCI/ADR-RES = tested on: NCI/ADR-RES
SK-MEL-5 = tested on: SK-MEL-5
SNB-19 = tested on: SNB-19
DU-145 = tested on: DU-145
CCRF-CEM = tested on: CCRF-CEM
MDA-MB-435 = tested on: MDA-MB-435
EKVX = tested on: EKVX
K562 = tested on: K562
IGROV-1 = tested on: IGROV-1
COLO 205 = tested on: COLO 205
786-0 = tested on: 786-0
HOP-62 = tested on: HOP-62
HOP-92 = tested on: HOP-92
MOLT-4 = tested on: MOLT-4

Measured: GI50

O=C(CCc1cccc(O)c1)NCCc1ccc(O)cc1
inactive: BT-549 > 100 µM | SF-295 > 100 µM | RXF 393 > 100 µM | U-251 > 100 µM | NCI/ADR-RES > 100 µM | SK-MEL-5 > 100 µM | SNB-19 > 100 µM | DU-145 > 100 µM | CCRF-CEM > 100 µM | MDA-MB-435 > 100 µM | EKVX > 100 µM | K562 > 100 µM | IGROV-1 > 100 µM | COLO 205 > 100 µM | 786-0 > 100 µM | HOP-62 > 100 µM | HOP-92 > 100 µM | MOLT-4 > 100 µM

COc1ccc(/C=N/N2C(=O)c3c(N)c(C#N)c(-c4ccccc4)c(-c4ccccc4)c3C2=O)cc1
inactive: BT-549 > 100 µM | SF-295 70.8 µM | RXF 393 72.8 µM | U-251 98.6 µM | NCI/ADR-RES > 100 µM | SK-MEL-5 > 100 µM | SNB-19 76.9 µM | DU-145 > 100 µM | CCRF-CEM > 100 µM | MDA-MB-435 > 100 µM | EKVX > 100 µM | K562 > 100 µM | IGROV-1 > 100 µM | COLO 205 > 100 µM | 786-0 64.6 µM | HOP-92 84.3 µM | MOLT-4 > 100 µM

O=C1c2ccccc2-c2nc(-c3cccc([N+](=O)[O-])c3)nnc21
inactive: BT-549 19.5 µM | SF-295 1.56 µM | RXF 393 24.3 µM | U-251 4.5 µM | NCI/ADR-RES 13.4 µM | SK-MEL-5 2.69 µM | SNB-19 13.9 µM | DU-145 4.25 µM | CCRF-CEM 7.14 µM | MDA-MB-435 1.97 µM | EKVX 7.38 µM | K562 5.94 µM | IGROV-1 28.8 µM | COLO 205 3.91 µM | 786-0 30.5 µM | HOP-92 > 100 µM | MOLT-4 9.73 µM

CCNc1ccc2c(c1)C(=O)N(OS(C)(=O)=O)C2=O
inactive: BT-549 71.4 µM | SF-295 > 100 µM | RXF 393 32.4 µM | U-251 > 100 µM | NCI/ADR-RES > 100 µM | SK-MEL-5 41.2 µM | SNB-19 > 100 µM | DU-145 > 100 µM | CCRF-CEM 32.1 µM | MDA-MB-435 > 100 µM | EKVX 62.7 µM | COLO 205 42.7 µM | 786-0 34.1 µM | HOP-62 > 100 µM | HOP-92 > 100 µM

CCOC(=O)c1c(SCCN2CCCCC2)n(-c2ccccc2)c(=S)n(-c2ccccc2)c1=O
inactive: BT-549 16.6 µM | SF-295 > 100 µM | RXF 393 13 µM | U-251 28.6 µM | NCI/ADR-RES 21.2 µM | SK-MEL-5 15.6 µM | SNB-19 > 78.3 µM | DU-145 29.6 µM | CCRF-CEM 2.99 µM | MDA-MB-435 16.3 µM | K562 3 µM | IGROV-1 > 10 µM | COLO 205 11.7 µM | 786-0 14.8 µM | HOP-62 14 µM | HOP-92 16.3 µM | MOLT-4 2.28 µM

O=C1NC(Cc2c[nH]c3ccccc23)C(=O)N2C(C3CCCCC3)c3[nH]c4ccccc4c3C[C@@H]12 (stereo not given in full)
inactive: BT-549 14.9 µM | SF-295 24 µM | RXF 393 5.98 µM | U-251 11.4 µM | NCI/ADR-RES 11.7 µM | SK-MEL-5 12.8 µM | SNB-19 22.3 µM | DU-145 24.3 µM | MDA-MB-435 11 µM | EKVX 16 µM | K562 10.8 µM | IGROV-1 13.8 µM | COLO 205 17.2 µM | 786-0 11.4 µM | HOP-62 18.2 µM | HOP-92 15.4 µM | MOLT-4 5.97 µM

CC(=O)OCC1OC(OCCCOP(=O)(OCCC#N)OCC2OC(n3cnc4c(N)ncnc43)C(OC(=O)c3ccccc3)C2OC(=O)c2ccccc2)C(OC(C)=O)C(OC(C)=O)C1OC(C)=O (stereo not given)
inactive: BT-549 > 100 µM | SF-295 > 100 µM | RXF 393 > 100 µM | U-251 > 100 µM | NCI/ADR-RES > 100 µM | SK-MEL-5 > 100 µM | SNB-19 > 100 µM | DU-145 > 100 µM | CCRF-CEM > 100 µM | MDA-MB-435 > 100 µM | EKVX > 100 µM | K562 > 100 µM | COLO 205 > 100 µM | 786-0 > 100 µM | HOP-62 > 100 µM | HOP-92 > 100 µM | MOLT-4 > 100 µM

CCN(CC)c1ccc(/C=C/C2=NN(c3cccc(S(=O)(=O)O)c3)C3(C2)SCC(=O)N3c2nc3ccccc3s2)cc1 (stereo not given)
inactive: BT-549 60.1 µM | RXF 393 > 100 µM | U-251 25.1 µM | NCI/ADR-RES > 100 µM | SK-MEL-5 21.1 µM | SNB-19 39.8 µM | DU-145 27.4 µM | CCRF-CEM 21.4 µM | MDA-MB-435 23.6 µM | EKVX 36 µM | K562 17.7 µM | IGROV-1 41.7 µM | COLO 205 24.1 µM | 786-0 63.8 µM | HOP-92 44.9 µM | MOLT-4 22 µM

COC1OC2COC1(OCc1ccccc1)C1OC(C)(C)OC21 (stereo not given)
inactive: BT-549 > 100 µM | SF-295 > 100 µM | RXF 393 > 100 µM | U-251 > 100 µM | NCI/ADR-RES > 100 µM | SK-MEL-5 > 100 µM | SNB-19 > 100 µM | DU-145 > 100 µM | CCRF-CEM > 100 µM | MDA-MB-435 > 100 µM | EKVX > 100 µM | K562 > 100 µM | IGROV-1 > 100 µM | COLO 205 > 100 µM | 786-0 > 100 µM | HOP-62 > 100 µM | MOLT-4 > 100 µM

CCOC(=O)c1cc(C2CCN(c3ccccc3)C2=O)c(C(=O)/C=C(/C)O)[nH]1 (stereo not given)
inactive: BT-549 61.2 µM | SF-295 70.8 µM | RXF 393 21.6 µM | U-251 > 100 µM | NCI/ADR-RES 73.5 µM | SK-MEL-5 36.3 µM | SNB-19 > 100 µM | DU-145 > 100 µM | CCRF-CEM 59.6 µM | MDA-MB-435 60.8 µM | EKVX 24.7 µM | K562 64 µM | IGROV-1 > 100 µM | COLO 205 > 100 µM | 786-0 54.5 µM | HOP-62 > 100 µM | MOLT-4 42.7 µM

C[n+]1c(-c2ccc(/C=N/NC(=O)C(=O)N/N=C/c3ccc(-c4cn5ccccc5[n+]4C)cc3)cc2)cn2ccccc21
inactive: BT-549 > 100 µM | RXF 393 > 100 µM | U-251 > 100 µM | NCI/ADR-RES > 100 µM | SK-MEL-5 91 µM | SNB-19 > 100 µM | DU-145 > 100 µM | CCRF-CEM > 100 µM | MDA-MB-435 > 100 µM | EKVX > 100 µM | K562 > 100 µM | IGROV-1 > 100 µM | COLO 205 > 100 µM | 786-0 > 100 µM | HOP-62 > 100 µM | HOP-92 > 100 µM | MOLT-4 > 100 µM

Clc1ccc(-c2cn3c(nc4ccccc43)c(/C=C/c3ccco3)n2)cc1
inactive: BT-549 51.4 µM | RXF 393 33.7 µM | U-251 28.2 µM | NCI/ADR-RES 42.1 µM | SK-MEL-5 33.9 µM | SNB-19 41.4 µM | DU-145 75.7 µM | MDA-MB-435 23.2 µM | K562 29.8 µM | IGROV-1 30.5 µM | COLO 205 41.7 µM | 786-0 30.3 µM | HOP-62 42.5 µM | HOP-92 16.5 µM

CCN(CC)CCCNc1nc2ccccc2[n+]([O-])n1
inactive: BT-549 > 100 µM | SF-295 > 100 µM | RXF 393 > 100 µM | U-251 > 100 µM | NCI/ADR-RES > 100 µM | SK-MEL-5 > 100 µM | SNB-19 > 100 µM | DU-145 > 100 µM | CCRF-CEM > 100 µM | MDA-MB-435 > 100 µM | K562 > 100 µM | IGROV-1 > 100 µM | COLO 205 > 100 µM | 786-0 > 100 µM | HOP-92 > 100 µM | MOLT-4 > 100 µM

Cc1ncc([N+](=O)[O-])n1CCNCCCCn1ccnc1[N+](=O)[O-]
inactive: BT-549 45.5 µM | SF-295 > 100 µM | RXF 393 > 100 µM | U-251 > 100 µM | NCI/ADR-RES > 100 µM | SK-MEL-5 > 100 µM | DU-145 > 100 µM | CCRF-CEM > 100 µM | MDA-MB-435 > 100 µM | EKVX > 100 µM | K562 > 100 µM | IGROV-1 > 100 µM | COLO 205 > 100 µM | 786-0 > 100 µM | HOP-62 > 100 µM | HOP-92 > 100 µM | MOLT-4 > 100 µM

O=C1C=C(c2ccccc2)O/C1=C\C(=O)c1ccc(Cl)cc1
inactive: BT-549 12.5 µM | RXF 393 17.7 µM | U-251 16.3 µM | NCI/ADR-RES 23.2 µM | SK-MEL-5 21.5 µM | SNB-19 > 100 µM | DU-145 43.6 µM | MDA-MB-435 15.8 µM | EKVX > 100 µM | K562 22.2 µM | IGROV-1 17.1 µM | COLO 205 16.3 µM | 786-0 14.3 µM | HOP-62 > 100 µM | HOP-92 19.2 µM | MOLT-4 20.5 µM

CC(Oc1ccccc1Cl)C(=O)NN1C(=O)CC(=O)NC1=S (stereo not given)
inactive: BT-549 > 100 µM | SF-295 89.5 µM | RXF 393 > 100 µM | U-251 > 100 µM | NCI/ADR-RES > 100 µM | SK-MEL-5 > 100 µM | SNB-19 > 100 µM | DU-145 > 100 µM | MDA-MB-435 > 100 µM | EKVX > 100 µM | K562 9.53 µM | IGROV-1 > 100 µM | COLO 205 > 100 µM | 786-0 > 100 µM | HOP-62 > 100 µM | HOP-92 > 100 µM | MOLT-4 > 100 µM
